Test results: US20160106654A1, “ADDITIVE OR SYNERGISTIC SUNSCREEN, ANTIOXIDANT, AND DNA REPAIR ENZYME COMPOSITION” (US CosmeceuTechs, LLC, priority 2014, published 2016)

Columns and labels:
[1] = system: Normal human epidermal keratinocytes (NHEK); assay: NHEK, UVB, and protein carbonylation assay; type: cell-based; settings: 5 μg/mL; for inhibition at 5 µg/mL: Homo sapiens, light or radiation study, n = 2, read-out: PC inhibition (%); for PC inhibition (%): n = 2
Description: The antioxidant(s) are preferably selected from those which protect against and/or prevent protein carbonylation (PC), protein glycation, lipidation, lipid glycation, protein alkylation, and/or lipid alkylation. Our system of evaluation from US 2006/0171886 A1, which may be modified to include a protein carbonylation, protein glycation, and/or protein alkylation analysis, may be used to evaluate the effectiveness of substances. Test results for selected antioxidants in the protection of human skin against protein carbonylation are shown below in Table 2.

[2] = system: Normal human epidermal keratinocytes (NHEK); assay: NHEK, UVB, and DNA damage analysis assay; type: cell-based; settings: 5 μg/mL; for inhibition at 5 µg/mL: Homo sapiens, light or radiation study; for 8-oxoG inhibition (%) / CPD inhibition (%): n = 2
[3] = system: cyclobutane pyrimidine dimer (CPD) and 8-oxo-7,8-dihydro-2′-deoxyguanosine (8OHdG) formation, and protein carbonylation; assay: Combined protection score (CPD, 8OHdG, protein carbonylation), normalized for concentration; settings: for Total Score: a maximum total score is 60
[4] = n = 2, read-out: 8-oxoG inhibition (%)
[5] = n = 2, read-out: CPD inhibition (%)

SMILES	inhibition at 5 µg/mL [1] [%]	inhibition at 5 µg/mL [2, 4] [%]	inhibition at 5 µg/mL [2, 5] [%]	8oxo Score [3]	CPDs Score [3]	PC Score [3]	Total Score [3]	PC inhibition (%) [1] [%]	8-oxoG inhibition (%) [2] [%]	CPD inhibition (%) [2] [%]
O=C(/C=C/c1ccc(O)c(O)c1)O[C@@H]1C[C@](O)(C(=O)O)C[C@@H](O)[C@H]1O [Chlorogenic Acid]	0	52.5	36							
O=C(O[C@@H]1Cc2c(O)cc(O)cc2O[C@@H]1c1cc(O)c(O)c(O)c1)c1cc(O)c(O)c(O)c1 [Epigallocatechin Gallate]				18	15	3	36	100	41.9	44.5
COc1cc(/C=C/C(=O)O)ccc1O [Ferulic Acid]	0	41.1	15.7	19	17	10	46			
O=C1O[C@H]([C@@H](O)CO)C(O)=C1O [L-Ascorbic Acid]	87.2	44.1	33.1	20	16	0	36			
NCCC(=O)N[C@@H](Cc1cnc[nH]1)C(=O)O [L-Carnosine]				17	18	17	52	100	45.0	51.6
C[N+](C)(C)[C@@H](Cc1c[nH]c(=S)[nH]1)C(=O)[O-] [L-Ergothioneine]				14	17	16	47	100		
O=c1c(O)c(-c2ccc(O)c(O)c2)oc2cc(O)cc(O)c12 [Quercetin]	0	42.4	45.7							
Oc1ccc(C=Cc2cc(O)cc(O)c2)cc1 [Resveratrol]	0	40.6	51.9	18	17	12	47			
Cc1c(C)c2c(c(C)c1O)CC[C@@](C)(CCC[C@H](C)CCC[C@H](C)CCCC(C)C)O2 [α-Tocopherol]				18	16	12	46			
